One test concerns the target T1, human 5-HT7 receptor (Homo sapiens, UniProt P34969).
T1 construct: expressed in transfected cells; host or cells: CHO
Briefly: Binding test of 5-HT7 receptor. Particulars: [3H]5-HT, human 5-HT7 receptor expressing CHO cell membrane.

The test system of test [1] is migraine model of guinea pig. Briefly: Preventive effect in guinea pig migraine model (leaked protein from dural blood vessel caused by 5-HT). In kind it is in vivo. Particulars: for leakage of the protein: 10 mg/kg or 30 mg/kg of oral administration; for amount of leaked protein (fluorescence intensity per mg dura): 3 mg/kg, intraperitoneal administration, 5-HT i.v. How it is done:
In this test system, migraine preventive effect was evaluated by measuring this leaked protein in the presence of a compound to be tested, and this was carried out by partially modifying the method described in Rachel A. Spokes and Vicki C. Middlefell, European Journal of Pharmacology (1995) 281, 75-79.
Hartley male guinea pig (250-350 g) was anesthetized by peritoneal administration (i.p.) of urethane (1.5 g/kg). By applying simple cannulation to a saphena, 50 mg/kg of a fluorescent protein (FITC-BSA) was intravenously administered (i.v.) and 5 minutes thereafter, physiological saline or […] of 5-HT was intravenously administered. By carrying out perfusion with physiological saline 15 minutes thereafter, blood was washed out. […] By detaching the skull, dura mater was took out and incubated at 37° C. for 16 hours in an Eppendorf tube in the presence of physiological saline of pH 11. Centrifugation was carried out, and the supernatant was dispensed into a plate. Fluorescence intensity was measured using a fluorescence plate reader (excitation wavelength 485 nm, […] 530 nm). By measuring dura mater weight, fluorescence intensity per mg dural protein was calculated.
Values of the fluorescence intensity measured at the time of the administration of each compound and at the time of no administration are shown in FIG. 1 to FIG. 4. […] The control indicates fluorescence intensity at the time of no addition of 5-HT, namely the reference value.

Another test deals with 5-HT6 receptor (Homo sapiens, UniProt P50406). Briefly: Affinity for other receptors: 5-HT6. In kind it is binding. The text has this:
(§1) Affinity of the compound of Preparation 3 for 5-HT1A, 5-HT1B, 5-HT2A, 5-HT2C, 5-HT3, 5-HT4, 5-HT6, α1, M1 and D2 receptors was verified using conventionally known techniques (Journal of Neurochemistry (1986) 47, 529-540; Molecular Pharmacology (1982) 21, 301-314; European Journal of Pharmacology (1985) 106, 539-546; Journal of Pharmacology Experimental Therapy (1992) 263, 1127-1132; British Journal of Pharmacology (1993) 109, 618-624; Molecular Pharmacology (1993) 43, 320-327; Molecular Pharmacology (1989) 35, 324-330; Cellular Molecular Neurobiology (1988) 8, 181-191; European Journal of Pharmacology (1988) 173, 177-182).

The next test deals with T2, 5-HT3 receptor (Homo sapiens, UniProt P46098).
T2 sequence (P46098 24-478): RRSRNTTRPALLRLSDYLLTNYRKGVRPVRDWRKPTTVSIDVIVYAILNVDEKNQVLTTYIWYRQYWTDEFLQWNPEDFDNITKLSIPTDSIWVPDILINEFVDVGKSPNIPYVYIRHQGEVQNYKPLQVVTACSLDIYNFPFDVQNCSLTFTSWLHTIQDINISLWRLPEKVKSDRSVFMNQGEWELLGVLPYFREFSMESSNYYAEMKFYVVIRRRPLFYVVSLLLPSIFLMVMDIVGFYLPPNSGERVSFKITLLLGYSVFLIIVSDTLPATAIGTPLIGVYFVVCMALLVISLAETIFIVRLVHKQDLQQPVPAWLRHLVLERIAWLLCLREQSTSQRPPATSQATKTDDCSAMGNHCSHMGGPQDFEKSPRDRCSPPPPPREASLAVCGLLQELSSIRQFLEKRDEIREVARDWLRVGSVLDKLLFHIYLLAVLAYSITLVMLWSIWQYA
Briefly: Affinity for other receptors: 5-HT3. In kind it is binding.
Description: as §1

A further test deals with 5-HT1B receptor (Homo sapiens, UniProt P28222). Briefly: Affinity for other receptors: 5-HT1B. In kind it is binding.
Chain of 5-HT1B receptor (P28222 whole entry): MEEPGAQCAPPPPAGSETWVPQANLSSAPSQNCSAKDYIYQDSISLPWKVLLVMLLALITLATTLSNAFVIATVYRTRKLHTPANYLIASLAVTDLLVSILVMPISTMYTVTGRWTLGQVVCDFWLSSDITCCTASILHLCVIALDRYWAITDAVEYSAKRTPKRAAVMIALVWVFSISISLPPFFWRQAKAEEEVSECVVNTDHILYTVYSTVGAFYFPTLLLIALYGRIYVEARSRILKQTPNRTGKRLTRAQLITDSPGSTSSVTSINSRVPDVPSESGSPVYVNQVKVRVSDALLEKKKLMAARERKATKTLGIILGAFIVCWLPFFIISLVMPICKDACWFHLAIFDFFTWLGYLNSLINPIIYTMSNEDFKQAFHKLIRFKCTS
Description: as §1

In a further test the target is 5-HT2A receptor (Homo sapiens, UniProt P28223). Briefly: Affinity for other receptors: 5-HT2A. In kind it is binding.
Chain of 5-HT2A receptor (P28223 whole entry): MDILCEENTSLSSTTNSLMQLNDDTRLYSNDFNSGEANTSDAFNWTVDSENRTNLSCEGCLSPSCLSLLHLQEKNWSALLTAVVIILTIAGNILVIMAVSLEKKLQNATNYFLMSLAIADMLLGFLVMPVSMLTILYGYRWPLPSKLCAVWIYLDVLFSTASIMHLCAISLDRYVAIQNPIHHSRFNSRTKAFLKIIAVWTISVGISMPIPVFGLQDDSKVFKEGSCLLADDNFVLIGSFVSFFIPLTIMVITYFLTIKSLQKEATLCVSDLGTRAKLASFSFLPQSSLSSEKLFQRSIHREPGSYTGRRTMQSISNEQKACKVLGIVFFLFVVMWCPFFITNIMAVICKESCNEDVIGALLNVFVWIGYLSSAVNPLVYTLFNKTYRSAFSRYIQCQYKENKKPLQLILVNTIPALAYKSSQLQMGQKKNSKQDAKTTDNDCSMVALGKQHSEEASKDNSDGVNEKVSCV
Description: as §1

For the next test, the target named is T3, 5-HT2C receptor (Homo sapiens, UniProt P28335).
T3 sequence (P28335 33-458): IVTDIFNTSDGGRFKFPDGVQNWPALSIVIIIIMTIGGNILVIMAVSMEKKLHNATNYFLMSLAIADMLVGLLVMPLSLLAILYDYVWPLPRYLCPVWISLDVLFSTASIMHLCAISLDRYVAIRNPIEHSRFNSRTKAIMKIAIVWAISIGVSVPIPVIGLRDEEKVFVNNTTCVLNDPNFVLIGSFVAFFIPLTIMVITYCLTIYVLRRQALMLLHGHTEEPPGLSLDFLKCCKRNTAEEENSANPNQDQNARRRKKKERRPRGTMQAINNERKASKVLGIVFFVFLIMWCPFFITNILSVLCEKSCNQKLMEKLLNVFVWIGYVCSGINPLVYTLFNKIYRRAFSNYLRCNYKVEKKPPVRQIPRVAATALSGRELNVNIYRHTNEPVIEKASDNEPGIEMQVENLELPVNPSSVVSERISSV
Briefly: Affinity for other receptors: 5-HT2C. In kind it is binding.
Description: as §1

The next test has as its target D2 receptor (Homo sapiens, UniProt P14416). Briefly: Affinity for other receptors: D2. In kind it is binding.
Description: as §1

A further test deals with T4, M1 receptor (Homo sapiens, UniProt P11229).
T4 sequence (P11229 1-460): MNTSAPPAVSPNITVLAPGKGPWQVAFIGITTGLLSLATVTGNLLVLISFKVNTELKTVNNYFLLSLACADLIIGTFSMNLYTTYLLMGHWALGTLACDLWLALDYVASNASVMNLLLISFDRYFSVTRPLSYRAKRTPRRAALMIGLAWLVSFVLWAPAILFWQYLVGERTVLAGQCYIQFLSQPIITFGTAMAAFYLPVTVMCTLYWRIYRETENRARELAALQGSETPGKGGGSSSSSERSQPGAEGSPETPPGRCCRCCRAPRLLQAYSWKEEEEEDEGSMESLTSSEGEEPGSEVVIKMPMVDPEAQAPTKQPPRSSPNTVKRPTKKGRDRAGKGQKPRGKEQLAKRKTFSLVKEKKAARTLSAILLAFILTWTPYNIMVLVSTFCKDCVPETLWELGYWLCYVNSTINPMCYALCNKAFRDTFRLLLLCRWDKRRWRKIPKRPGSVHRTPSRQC
Briefly: Affinity for other receptors: M1. In kind it is binding.
Description: as §1

Another test deals with T5, 5-HT1A receptor (Homo sapiens, UniProt P08908).
T5 sequence (P08908 1-422): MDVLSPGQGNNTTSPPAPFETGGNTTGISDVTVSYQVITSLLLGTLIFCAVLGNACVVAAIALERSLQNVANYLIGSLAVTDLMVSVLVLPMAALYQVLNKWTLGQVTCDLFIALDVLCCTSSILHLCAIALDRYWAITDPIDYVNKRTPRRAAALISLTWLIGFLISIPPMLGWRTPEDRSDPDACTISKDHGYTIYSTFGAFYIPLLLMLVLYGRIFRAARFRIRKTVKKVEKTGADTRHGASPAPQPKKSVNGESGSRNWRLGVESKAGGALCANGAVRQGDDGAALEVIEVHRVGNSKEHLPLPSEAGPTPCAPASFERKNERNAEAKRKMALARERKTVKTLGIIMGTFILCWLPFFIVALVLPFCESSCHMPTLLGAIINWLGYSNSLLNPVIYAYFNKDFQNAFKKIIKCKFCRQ
Briefly: Affinity for other receptors: 5-HT1A. In kind it is binding.
Description: as §1

A further test has as its target α1 receptor. Briefly: Affinity for other receptors: α1. In kind it is binding.
Description: as §1

For a further test, the target named is 5-HT4 receptor (Homo sapiens, UniProt Q13639). Briefly: Affinity for other receptors: 5-HT4. In kind it is binding.
Chain of 5-HT4 receptor (Q13639 whole entry): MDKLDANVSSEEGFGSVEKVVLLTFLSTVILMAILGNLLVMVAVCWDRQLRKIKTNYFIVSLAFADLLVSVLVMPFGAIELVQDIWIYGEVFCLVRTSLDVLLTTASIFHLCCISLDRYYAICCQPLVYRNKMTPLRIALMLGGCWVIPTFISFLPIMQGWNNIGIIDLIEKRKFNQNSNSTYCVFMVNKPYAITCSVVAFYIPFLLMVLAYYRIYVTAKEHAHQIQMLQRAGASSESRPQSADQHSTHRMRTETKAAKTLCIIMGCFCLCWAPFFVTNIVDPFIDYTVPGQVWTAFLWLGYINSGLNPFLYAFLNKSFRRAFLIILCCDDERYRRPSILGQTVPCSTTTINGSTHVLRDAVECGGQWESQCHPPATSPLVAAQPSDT
Description: as §1

A further test deals with T6, human 5-HT2B receptor (Homo sapiens, UniProt P41595).
T6 construct: expressed in transfected cells; host or cells: HEK293-EBNA
T6 sequence (P41595 whole entry): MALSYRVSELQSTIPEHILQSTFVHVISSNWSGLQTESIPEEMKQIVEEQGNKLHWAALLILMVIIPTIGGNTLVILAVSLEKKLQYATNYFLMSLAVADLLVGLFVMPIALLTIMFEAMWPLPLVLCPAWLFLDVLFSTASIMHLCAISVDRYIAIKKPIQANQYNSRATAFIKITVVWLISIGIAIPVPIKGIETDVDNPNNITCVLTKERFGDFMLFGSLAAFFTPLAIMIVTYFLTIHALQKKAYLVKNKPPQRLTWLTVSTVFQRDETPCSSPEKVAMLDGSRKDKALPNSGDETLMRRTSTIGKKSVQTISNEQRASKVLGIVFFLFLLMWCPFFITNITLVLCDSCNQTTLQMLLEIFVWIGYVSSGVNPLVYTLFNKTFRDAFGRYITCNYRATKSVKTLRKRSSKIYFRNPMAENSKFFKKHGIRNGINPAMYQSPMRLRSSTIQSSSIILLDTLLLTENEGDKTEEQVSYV
Briefly: Binding test of 5-HT2B receptor. Particulars: [3H]Mesulergine, human 5-HT2B receptor expressing HEK293-EBNA cell membrane.

In another test the test system is 5-HT2B receptor. Particulars: against 5-HT1A, 5-HT1B, 5-HT2A, 5-HT2C, 5-HT3, 5-HT6, 5-HT7, α1, M1 and D2 receptors; cited from earlier work.

Each structure is given as a SMILES string.

Here are results for twelve compounds from patent US20080161419A1, “Prophylactic Antimigraine Agents” (priority 2004, published 2008).

T1 sequence (P34969 whole entry): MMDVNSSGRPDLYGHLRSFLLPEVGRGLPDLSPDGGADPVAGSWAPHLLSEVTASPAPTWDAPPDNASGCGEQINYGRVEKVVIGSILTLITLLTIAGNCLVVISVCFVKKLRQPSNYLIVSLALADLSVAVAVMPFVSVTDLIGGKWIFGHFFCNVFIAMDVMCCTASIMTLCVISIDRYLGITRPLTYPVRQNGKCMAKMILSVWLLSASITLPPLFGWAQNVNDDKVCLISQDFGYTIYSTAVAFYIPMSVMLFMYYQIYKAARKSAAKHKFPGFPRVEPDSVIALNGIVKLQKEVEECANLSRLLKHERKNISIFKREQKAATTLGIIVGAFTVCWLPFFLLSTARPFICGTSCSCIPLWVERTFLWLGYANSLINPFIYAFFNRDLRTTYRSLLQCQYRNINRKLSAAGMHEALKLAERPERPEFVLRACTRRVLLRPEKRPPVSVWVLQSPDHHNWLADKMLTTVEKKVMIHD
Chain of 5-HT6 receptor (P50406 whole entry): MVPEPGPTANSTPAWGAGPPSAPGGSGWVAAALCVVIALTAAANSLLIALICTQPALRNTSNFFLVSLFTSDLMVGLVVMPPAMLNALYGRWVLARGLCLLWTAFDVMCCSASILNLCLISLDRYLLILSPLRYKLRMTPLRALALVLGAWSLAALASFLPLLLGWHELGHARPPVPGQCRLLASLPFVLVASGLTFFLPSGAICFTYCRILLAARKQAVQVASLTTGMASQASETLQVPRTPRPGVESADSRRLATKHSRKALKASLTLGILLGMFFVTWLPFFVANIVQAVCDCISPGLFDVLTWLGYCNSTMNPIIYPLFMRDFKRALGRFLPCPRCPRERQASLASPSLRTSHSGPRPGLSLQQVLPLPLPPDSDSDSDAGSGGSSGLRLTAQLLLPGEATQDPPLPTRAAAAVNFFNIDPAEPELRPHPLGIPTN
Chain of D2 receptor (P14416 whole entry): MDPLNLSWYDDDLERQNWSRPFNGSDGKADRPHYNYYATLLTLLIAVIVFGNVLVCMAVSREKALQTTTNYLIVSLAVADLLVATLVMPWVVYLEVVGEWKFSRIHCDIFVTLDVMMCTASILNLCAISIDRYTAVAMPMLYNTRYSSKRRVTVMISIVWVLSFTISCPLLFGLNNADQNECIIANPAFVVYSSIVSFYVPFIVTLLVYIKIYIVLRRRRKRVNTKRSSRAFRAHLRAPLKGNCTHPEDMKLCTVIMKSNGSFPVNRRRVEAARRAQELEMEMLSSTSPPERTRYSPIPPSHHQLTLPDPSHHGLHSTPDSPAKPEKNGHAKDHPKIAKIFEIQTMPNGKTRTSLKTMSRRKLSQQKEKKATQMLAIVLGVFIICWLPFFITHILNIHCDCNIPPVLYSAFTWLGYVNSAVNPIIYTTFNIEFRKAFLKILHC
Description for human 5-HT2B receptor: HEK293-ENBA cell was used as the gene transferring cell.
Cultured HEK293-EBNA cells expressing human 5-HT2B receptor were washed with PBS(−). The cells were scraped in the presence of PBS(−), and the cells were recovered by centrifugation (1,000 rpm, 10 min, 4° C.). They were homogenized using Polytron (PTA 10-TS) in the presence of 5 mM Tris-HCl (pH 7.4) buffer and centrifuged (40,000×g, 10 min, 4° C.). They were suspended using a homogenizer in the presence of 50 mM Tris-HCl (pH 7.4) buffer. They were subjected to centrifugation (40,000×g, 10 min. 4° C.), suspended in 50 mM Tris-HCl (H 7.4) and stored at −80° C.
A total volume of 500 μl containing 50 mM Tris-HCl-4 mM CaCl2 (pH 7.4) buffer, the human 5-HT2B receptor expressing HEK293-EBNA cell membrane preparation and a radio ligand [^3H]Mesulergine (3.1 TBq/mmol) was incubated at 25° C. for 1 hour. The compound was dissolved in 100%1/DMSO and diluted to respective concentrations. Nonspecific binding was defined as the binding quantity in the presence of 1 μM ritanserin, and the result of subtracting the nonspecific binding quantity from the total binding quantity was defined as the specific binding quantity. […] The glass filter was soaked in 5 ml of a liquid scintillator (Aquasol-2) and the radioactivity was measured using a liquid scintillation counter. […]
Description for human 5-HT7 receptor: Cultured CHO cells expressing human 5-HT7 receptor were washed with PBS(−). The cells were scraped in the presence of PBS(−), and the cells were recovered by centrifugation (1,000 rpm, 10 min, 4° C.). They were homogenized using Polytron (TA 10-TS) in the presence of 5 mM Tris-HCl (pH 7.4) buffer and centrifuged (40,000×g, 10 min, 4° C.). They were suspended using a homogenizer in the presence of 50 mM Tris-HCl (pH 7.4) buffer. They were subjected to centrifugation (40,000×g, 10 min, 4° C.), suspended in 50 mM Tris-HCl (pH 7.4) and stored at −80° C.
A total volume of 500 μl containing 50 mM Tris-HCl-4 mM CaCl2 (pH 7.4) buffer, the human 5-HT7 receptor expressing CHO cell membrane preparation and a radio ligand [^3H]5-HT (3.40 TBq/mmol) was incubated at 25° C. for 1 hour. The compound was dissolved in 100% DMSO and diluted to respective concentrations. Nonspecific binding was defined as the binding quantity in the presence of 10 μM metergoline, and the result of subtracting the nonspecific binding quantity from the total binding quantity was defined as the specific binding quantity. This was mixed with 4 ml of 50 mM Tris-HCl buffer (pH 7.4) and filtered under a reduced pressure using a GF/B glass filter, and the filter was washed (4 ml×3) with the same buffer. The glass filter was soaked in 5 ml of a liquid scintillator (Aquasol-2) and the radioactivity was measured using a liquid scintillation counter. Concentration of the compound which inhibits 50% of the receptor binding, IC50 value, was obtained by nonlinear regression analysis using SAS (ver. 6.11), and the Ki value which represents its affinity for the receptor was calculated using the formula of Cheng & Prussoff; Ki=IC50/(1+[L]/[Kd]) ([L]: ligand concentration, [Kd]: dissociation constant).

On human 5-HT7 receptor, `NC(N)=NC(=O)c1ccc2c(c1)C(=NO)c1c(CO)cccc1-2` [Preparation 7, (9EZ)-N-(diaminomethylene)-9-hydroxyimino-8-hydroxymethyl-9H-fluorene-2-carboxamide] came in with a Ki of 0.4 to 310 nM.
With `Cl.NC(N)=NC(=O)c1ccc2c(c1)C1(CCCO1)c1ccccc1-2` (racemic) [Preparation 60], the “leakage of the protein” value in test [1] was “almost completely suppressed leakage of the protein”.
As for `Cl.NC(N)=NC(=O)c1ccc2c(c1)C(O)c1ccccc1-2` (centres unmarked) [Preparation 3, N-(diaminomethylene)-9-hydroxy-9H-fluorene-2-carboxamide hydrochloride], the IC50 against 5-HT6 receptor, against 5-HT3 receptor, on 5-HT1B receptor, against 5-HT2A receptor, at 5-HT2C receptor and against D2 receptor was at least 1000 nM throughout. Moreover, the half-maximal inhibitory concentration (IC50) against M1 receptor, on 5-HT1A receptor, against α1 receptor and on 5-HT4 receptor was at least 1000 nM in each case. Further, the “amount of leaked protein (fluorescence intensity per mg dura)” value in [1] was “almost completely suppressed the amount of leaked protein”. Further, the inhibitory constant (Ki) is 17.6 nM at human 5-HT7 receptor and 1.8 nM on human 5-HT2B receptor.
For the compound `COC1(C)c2cc(C(=O)N=C(N)N)ccc2-c2c(F)cccc21.Cl` (racemic) [Preparation 87], the “leakage of the protein” value in [1] is recorded as “almost completely suppressed leakage of the protein”.
With `Cl.NC(N)=NC(=O)c1ccc2c(c1)C1(CCCO1)c1ccccc1-2` (single isomer, unassigned) [Preparation 60b], in [1], the “leakage of the protein” value is reported as “almost completely suppressed leakage of the protein”.
For the compound `Cl.NC(N)=NC(=O)c1ccc2c(c1)C1(CCCO1)c1ccccc1-2` (single isomer, unassigned) [Preparation 60a], the “leakage of the protein” value in test [1] is “almost completely suppressed leakage of the protein”.
With `CC(C)c1cc(-c2ccc(F)c3ccccc23)nc(N)n1` [RS-127445, 2-amino-4-(4-fluoronaphth-1-yl)-6-isopropylpyrimidine, reference compound], the 5-HT2B receptor selectivity with 5-HT2B receptor is on record as 1000 times. Moreover, the “amount of leaked protein (fluorescence intensity per mg dura)” value in test [1] was “showed an effect to reduce amount of the leaked protein”. Moreover, the “amount of leaked protein versus reference value” in test [1] (dose increased from 3 mg/kg to 10 mg/kg, intraperitoneal) is listed as “did Dot reduced to the reference value”. Moreover, the “minimum amount showing maximum drug effect in this model” value in test [1] (intraperitoneal) is listed as 3 mg/kg.
With `CC1(O)c2cc(C(=O)N=C(N)N)ccc2-c2c(F)cccc21.Cl` (single isomer, unassigned) [Preparation 78b], the “leakage of the protein” value in [1] is “almost completely suppressed leakage of the protein”.
For `CC1CCN(CC[C@H]2CCCN2S(=O)(=O)c2cccc(O)c2)CC1` [SB-269970, (R)-3-(2-(2-(4-methylpiperidin-1-yl)ethyl)pyrrolidine-1-sulfonyl)phenol, reference compound], the “amount of leaked protein versus reference value” in test [1] (dose increased from 3 mg/kg to 30 mg/kg, intraperitoneal) is listed as “did not reduced the amount of leaked protein to the reference value”. The “amount of leaked protein” value in test [1] (from 10 mg/kg, intraperitoneal) was “showed the effect”. In [1] (intraperitoneal), the “minimum amount showing maximum drug effect in this model” value is reported as 10 mg/kg.
As to `NC(N)=NC(=O)c1ccc2c(c1)C(Cl)c1ccccc1-2` (centres unmarked) [Preparation 4, 9-chloro-N-(diaminomethylene)-9H-fluorene-2-carboxamide], the Ki on human 5-HT7 receptor fell in the range of 0.4 to 310 nM.
`COC1(C)c2ccccc2-c2ccc(C(=O)N=C(N)N)cc21.Cl` (racemic) [Preparation 71]: in test [1], the “leakage of the protein” value is given as “almost completely suppressed leakage of the protein”.
The same measure, in the same setting: for `CCC1(OC)c2ccccc2-c2ccc(C(=O)N=C(N)N)cc21.Cl` (racemic) [Preparation 72] the value was “almost completely suppressed leakage of the protein”.
